Here are results for one molecule from US7521454B2 (Dainippon Sumitomo Pharma Co., Ltd., priority 2001, dated 2009).

Converted amounts (≈) assume the structure as drawn.

One series concerns mouse spleen cell. The series can be described thus: cells. The class given is cell-based. The conditions noted are these: Mus musculus, 24 h, read-out: Interferon-inducing activity: Minimum effective concentration.
Another series relates to OV2944-HM-1 cells. The series can be described thus: Antitumor effect in mouse model of spontaneous metastasis (OV2944-HM-1). The class given is in vivo. The conditions noted are these: 35 days after transplantation, Example 27 3 mg/kg oral, mIFN-α 5×10^4 U intradermal. As for the experimental part:
OV2944-HM-1 cells (obtained from Hiroshima University) derived from mouse ovarian cancer that is highly metastatic to the lymph nodes were intradermally transplanted to the buttocks of 6-week-old B6C3F1 female mice (Charles River Japan, Inc.) in amounts of 1×10^6 cells/0.05 ml/mouse. Ten days after the transplantation, the primary tumor was excised under Nembutal anaesthesia. Adhesives (Aron Alpha) were applied to the excised portions, and the stumps were sewed up with wound clips. The next day, body weights were measured, and they were divided into 3 groups (each group comprising 6 mice) in such a manner that the average body weights among groups were substantially the same. Vehicles (aqueous solutions of 0.5% CMC-Na) and the compound of Example 27 (3 mg/kg) were forcibly administered orally using an oral Sonde (10 ml/kg). Also, 5×10^4 U/0.1 ml/mouse of mIFN-α was intradermally administered through their backs. Administration was carried out 5 times every 4 days. Regional lymph nodes (mouse cervical, brachium, axillary cavity) were extirpated 35 days after the transplantation, and their wet weights were measured. Simultaneously, lungs were extirpated to visually inspect the metastasis. Also, significant difference was examined in accordance with Steel's multiple comparison. The SAS system for Windows Release 8.01 (SAS Institute Inc., Cary, N.C., U.S.A.) was used for the examination.
Thus, pulmonary metastasis was examined.

The subject of series [1] is rat model of eosinophil leukocytic infiltration. The series can be described thus: Rat model of eosinophil leukocytic infiltration (OVA, bronchoalveolar lavage). The class given is in vivo. The conditions noted are these: 2.5 hours before induction, lavage 24 hours after. Here is the method:
A rat was immunized intraperitoneally with 1 ml of a solution containing 1 mg of ovalbumin (OVA) and 100 mg of Al(OH)3 on day 0 and day 7. On day 14, a 1% OVA solution was sprayed for 15 minutes using a ultrasonic nebulizer to induce reactions. A test compound was administered intratracheally 2.5 hours before the induction. Bronchoalveolar lavage was performed 24 hours after the induction, and eosinocytes in the wash was stained with Hinkelman to count the number of stained cells. Sensi.−/Challe.+, CMC-Na, and Fluticasone were used as controls. FIG. 1 and the following table show the results.

Series [2] relates to human peripheral blood mononuclear cells (PBMC). The series can be described thus: Interferon-inducing activity in human peripheral blood mononuclear cells (PBMC), IFN-α ELISA.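 Also: IFN-α in pg/ml with a 1.25 pg/ml detection limit.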 The conditions noted are these: 24 h. The class given is cell-based. Here is the method:
Peripheral bloods were sampled from 5 healthy volunteers using a syringe containing heparin, and peripheral blood mononuclear cells (PBMC) were prepared by density gradient centrifugation utilizing the Lymphoprep™ (NYCOMED PHARMA AS). PBMCs were washed twice in serum-free RPMI 1640 medium and adjusted at 1×10^6 cells/ml in RPMI 1640 medium comprising 10% fetal bovine serum. The product was cultured in the presence of a test compound dissolved in dimethyl sulfoxide (final concentration: 0.1%) in an incubator in the presence of 5% CO^2 at 37° C. for 24 hours. As a control, 0.1% dimethyl sulfoxide containing no test compound was used. The culture supernatant was aseptically collected by filtration. Thereafter, the supernatant was cryopreserved at −20° C. or lower until it was subjected to the assay for IFN-inducing activity. Human IFN-α in the culture supernatant was quantified using a highly sensitive ELISA system (Amersham).

In another series the test system is male cynomolgus monkeys. The series can be described thus: Interferon-inducing activity in cynomolgus monkey (in vivo), serum interferon titer and vomition. The conditions noted are these: cynomolgus monkey, in vivo.
In another series the test system is IL-4 production. The series can be described thus: Inhibitory activity against Th2 cytokine produced from sensitized spleen cells: IL-4. The class given is cell-based, mouse. As to conditions: Mus musculus, 72 h, OVA-sensitized BALB/c spleen cells, 3 days, read-out: Inhibitory activity against IL-4 production. In short, it runs like this:
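BALB/c mice immunized i.p. with 10 μg ovalbumin on alum, boosted at day 14; spleen cells taken 7 days later. Cells (5×10^6/well) restimulated with ovalbumin 0.5 mg/ml plus test compound, cultured 3 days at 37° C, 5% CO2. Supernatant cytokine quantified by ELISA.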

The nature of series [3]: Solubility in citric acid/disodium phosphate buffers. The conditions noted are these: thermodynamic from solid.
Procedure: 5.53% citric acid (monohydrate) and 1.75% disodium phosphate (anhydrous) were mixed together to prepare buffers (pH 2.5, 5.5, 7.4). A compound was added thereto, the mixture was stirred in a vortex mixer and subjected to ultrasonication for 30 minutes. Thereafter, the resultant was stirred in a vortex mixer again and then centrifuged at 15,000 rpm for 20 minutes. The levels of the compounds in the supernatants were then quantified by HPLC.
Series [4] can be described thus: Gastrointestinal absorption in rat (drug level in blood by HPLC). The class given is in vivo. As to conditions: blood, dose 3 mg/kg oral, SD male rat. As for the experimental part:
A test compound was suspended in an aqueous solution of 0.5% carboxymethylcellulose, and the resulting suspension was orally administered to an SD male rat. Blood was sampled with the elapse of time, and the level of the drug in blood was assayed by HPLC.

In another series the test system is Balb/c male mouse. The series can be described thus: Interferon-inducing activity in mouse (in vivo), serum interferon titer after oral dosing. The conditions noted are these: serum 2 h after dosing, Balb/c mouse.

As usually defined, the solubility is the dissolved amount per volume that the medium holds. One may read the Cmax as the highest concentration seen after dosing. Usually Tmax stands for the time at which the peak concentration occurs. As to `CCCCNc1nc(N)c2nc(O)n(Cc3ccc(C)nc3)c2n1` [Example 27, 2-Butylamino-8-hydroxy-9-(6-methyl-3-pyridylmethyl)adenine], the minimal effective concentration with mouse spleen cell is 0.003 µM. In addition, the “pulmonary metastasis (visual inspection), in words” value in the series on OV2944-HM-1 cells is given as “not observed at all”. For the same molecule, the “lymph node metastasis (wet weight of metastasis lymph nodes vs vehicle group)” value in the series on OV2944-HM-1 cells (B6C3F1 mice, 5 times every 4 days) is on record as “smaller than those attained from the group to which vehicles were administered”. The “The number of mice which exhibited pulmonary metastasis in 6 mice” value in the series with OV2944-HM-1 cells (visual inspection) is 0. Further, the “eosinocytes in bronchoalveolar lavage, Average” value in series [1] (0.001 mg/kg intratracheal) was 383.85 ×10^4 cells; in [1] (0.01 mg/kg intratracheal), 186.77 ×10^4 cells; in series [1] (0.1 mg/kg intratracheal), 46.84 ×10^4 cells. Besides, the “Interferon-inducing activity (human IFN-α in culture supernatant)” value was 6 ± 3 pg/mL in series [2] (concentration 1 nM), 26 ± 22 pg/mL in series [2] (concentration 3 nM), 56 ± 37 pg/mL in series [2] (concentration 10 nM) and 59 ± 33 pg/mL in [2] (concentration 30 nM). The “interferon titer in blood serum (average±SE)” value with male cynomolgus monkeys is on record as 14,488±6365 U/ml. Moreover, in the series on IL-4 production (concentration 1 nM), the activity at 0.001 µM was 30%. In addition, in the series with IL-4 production (concentration 10 nM), the activity at 0.01 µM amounted to 1%. The activity at 0.1 µM in the series on IL-4 production (concentration 100 nM) is under 1%. Further, the solubility at 30 min in series [3] (pH 2.5, aqueous buffer) worked out at 610 µg/mL (≈ 1860 µM); in series [3] (pH 5.5, aqueous buffer) it was 5 µg/mL (≈ 15.3 µM); in series [3] (pH 7.4, aqueous buffer), 2 µg/mL (≈ 6.11 µM). In addition, in series [4] (read-out: Cmax), the Cmax was found to be 565 ng/mL. In addition, in [4] (read-out: Tmax), the time to peak (Tmax) is 30 min. For the same molecule, the Interferon-inducing activity turned out to be 14 ± 3 U/ml in the series on Balb/c male mouse (dosage 0.03 mg/kg oral), 324 ± 66 U/ml with Balb/c male mouse (dosage 0.1 mg/kg oral) and 804 ± 274 U/ml in the series with Balb/c male mouse (dosage 0.3 mg/kg oral).
